The nature of data set [1]: Pharmacokinetic (PK) assay in mice. It is filed as in vivo. To be noted: male, Balb/c, mouse, plasma, po, single intragastric 5 mg/kg. In short, it runs like this: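 Male Balb/c mice received a single intragastric dose of 5 mg/10 ml/kg in 0.5% CMC-Na. Orbital blood was taken at 0.5, 1, 2, 4, 6, 8 and 24 h into K2-EDTA; plasma was acetonitrile-precipitated and analyzed by LC-MS/MS, and PK parameters were calculated.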

For a further data set, the target named is T1, PI3Kδ (Homo sapiens, UniProt O00329).
T1 construct: purchased Carna 11-103
Put plainly: ADP-Glo lipid kinase assay, PI3Kδ kinase activity. The following applies: 0.1 nM enzyme, 90 min, 100 μM ATP. It is filed as biochemical. In short, it runs like this:
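ADP-Glo luminescence measured ADP formed by PI3Kα, β, γ or δ (0.1-2 nM working solution) with PIP2:3PS (50 μM added solution) and ATP in HEPES/MgCl2/NaCl/BSA buffer, 90 to 120 min at room temperature. % inhibition was set against DMSO and no-kinase controls, and IC50 came from a four-parameter fit.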

Results on one molecule are retold here after patent US20210221822A1, “TRICYCLIC DERIVATIVES INHIBITOR, PREPARATION METHOD, AND APPLICATIONS THEREOF” (Jiangsu Hansoh Pharmaceutical Group Co., Ltd., priority 2018, published 2021).

SMILES strings stand for the structures.

T1 sequence (O00329 whole entry): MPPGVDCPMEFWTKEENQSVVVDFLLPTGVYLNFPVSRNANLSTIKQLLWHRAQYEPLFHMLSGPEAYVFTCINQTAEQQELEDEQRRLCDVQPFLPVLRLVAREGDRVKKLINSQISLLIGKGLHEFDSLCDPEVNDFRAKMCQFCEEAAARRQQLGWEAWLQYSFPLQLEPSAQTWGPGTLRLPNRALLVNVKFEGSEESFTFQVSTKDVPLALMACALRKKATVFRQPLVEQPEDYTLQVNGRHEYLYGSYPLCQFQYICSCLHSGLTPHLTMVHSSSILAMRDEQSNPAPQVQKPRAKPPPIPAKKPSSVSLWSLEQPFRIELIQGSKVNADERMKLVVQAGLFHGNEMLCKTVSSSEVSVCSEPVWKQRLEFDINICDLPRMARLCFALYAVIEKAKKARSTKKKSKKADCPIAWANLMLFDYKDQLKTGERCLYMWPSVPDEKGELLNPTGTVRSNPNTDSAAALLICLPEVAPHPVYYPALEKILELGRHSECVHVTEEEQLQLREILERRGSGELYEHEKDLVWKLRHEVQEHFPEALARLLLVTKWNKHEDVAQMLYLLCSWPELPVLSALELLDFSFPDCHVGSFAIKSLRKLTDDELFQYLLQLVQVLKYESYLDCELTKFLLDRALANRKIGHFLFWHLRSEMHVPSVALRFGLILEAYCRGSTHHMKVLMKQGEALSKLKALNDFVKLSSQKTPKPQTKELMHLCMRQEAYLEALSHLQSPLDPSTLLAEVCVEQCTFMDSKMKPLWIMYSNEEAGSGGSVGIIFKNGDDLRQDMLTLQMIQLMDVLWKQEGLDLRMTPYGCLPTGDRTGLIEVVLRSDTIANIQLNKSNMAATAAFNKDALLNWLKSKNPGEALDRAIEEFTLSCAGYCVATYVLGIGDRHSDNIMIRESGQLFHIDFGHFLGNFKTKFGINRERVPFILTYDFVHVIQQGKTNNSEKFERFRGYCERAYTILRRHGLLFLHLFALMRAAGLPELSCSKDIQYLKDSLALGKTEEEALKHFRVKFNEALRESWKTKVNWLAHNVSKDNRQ
T1 sequence (P27986 whole entry partner): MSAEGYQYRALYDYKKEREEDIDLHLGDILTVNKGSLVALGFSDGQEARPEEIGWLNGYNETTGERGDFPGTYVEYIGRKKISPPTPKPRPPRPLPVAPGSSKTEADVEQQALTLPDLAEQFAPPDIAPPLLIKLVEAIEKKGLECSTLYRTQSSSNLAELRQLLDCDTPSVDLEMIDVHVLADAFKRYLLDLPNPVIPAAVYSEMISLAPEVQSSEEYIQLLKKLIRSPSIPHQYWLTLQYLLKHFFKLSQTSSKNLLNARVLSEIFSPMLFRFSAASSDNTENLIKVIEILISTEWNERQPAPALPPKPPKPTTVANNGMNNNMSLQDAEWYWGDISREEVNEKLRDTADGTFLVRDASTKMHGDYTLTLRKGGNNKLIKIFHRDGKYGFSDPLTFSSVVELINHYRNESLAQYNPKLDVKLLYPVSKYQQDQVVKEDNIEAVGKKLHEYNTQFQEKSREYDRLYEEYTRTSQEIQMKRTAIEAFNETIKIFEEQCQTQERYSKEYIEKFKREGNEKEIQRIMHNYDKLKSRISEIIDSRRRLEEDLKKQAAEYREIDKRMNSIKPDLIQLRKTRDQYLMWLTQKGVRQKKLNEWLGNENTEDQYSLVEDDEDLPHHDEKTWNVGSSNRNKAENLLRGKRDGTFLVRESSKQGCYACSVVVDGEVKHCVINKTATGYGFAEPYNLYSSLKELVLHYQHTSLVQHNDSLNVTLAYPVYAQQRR

As for `C[C@H](Nc1ccc2c(c1)OCCn1cc(N3C(=O)COC[C@H]3C(F)F)nc1-2)C(N)=O` [Example 68, (S)-2-((2-((S)-3-(difluoromethyl)-5-oxomorpholino)-5,6-dihydrobenzo[f]imidazo[1,2-d][1,4]oxazepin-9-yl)amino)propanamide], the AUC(0-t) in data set [1] (read-out: Area under curve AUC0-t) came out at 1320 ng·h/mL. Besides, in data set [1] (read-out: Area under curve AUC0-∞), the AUC(0-inf) is 1340 ng·h/mL. Also, the half-life in data set [1] (read-out: Half-life t1/2(h) (converted)) was 1.6 h. Further, in data set [1] (read-out: Mean residence time MRT), the mean residence time MRT stood at 1.8 h. The Tmax in data set [1] (read-out: Peak time tmax) was determined as 0.5 h. Besides, the Cmax in data set [1] (read-out: Plasma concentration Cmax) came out at 641 ng/mL. The half-maximal inhibitory concentration (IC50) on PI3Kδ amounted to 24 nM.
